Patent US11242337B2, “Compounds useful for treating gastrointestinal tract disorders” (Ardelyx, Inc., priority 2017, dated 2022)

What was measured:
[1] = system: absorption of sodium from the intestinal lumen; assay: Inhibition of intestinal sodium absorption in rats; type: in vivo, Sprague Dawley rats; conditions: 13-hours post-dose; for response vs control in vivo at 0.03 mg/kg: oral gavage 0.03 mg/kg; for response vs control in vivo at 0.1 mg/kg: oral gavage 0.1 mg/kg; for FFS (1-5): rats, group median fecal form score, 1 normal pellet to 5 liquid fecal streams; for response vs control in vivo at 0.3 mg/kg: oral gavage 0.3 mg/kg
Protocol: Urinary sodium excretion and fecal form were measured to assess the ability of selected example compounds to inhibit the absorption of sodium from the intestinal lumen. Eight-week old, male, Sprague Dawley rats were purchased from Envigo (Livermore, Calif.), were housed 2 per cage and acclimated for at least 48 hours before study initiation. Animals were fed. Harlan Teklad Global TD.160470 rodent chow (Madison, Wis.), standard laboratory rodent chow Harlan Teklad Global 2018 with the addition of 0.4% inorganic phosphorous. Animals had ad libitum access to food and water for the duration of the study and were maintained in a temperature and humidity controlled room on a standard light/dark cycle of 6 AM to 6 PM. On the day of study initiation, rats (n=5/group) were dosed by oral gavage with test compound or vehicle (3 mM HCl, 0.01% Tween80) at a dose volume of […]. Immediately after dose administration animals were placed in individual metabolic cages. At 13-hours post-dose, urine samples were collected and fecal form was assessed. In addition, the weight of food consumed over the 13-hour period was measured and recorded. Fecal forms were scored according to a common scale associated with increasing fecal water to the wettest observation in the cage's collection funnel (1, normal pellet; 2, pellet adhering to sides of collection funnel due to moisture; 3, loss of normal pellet shape; 4, complete loss of shape with a blotting pattern; 5, liquid fecal streams evident). Fecal form score (FFS) was calculated for each group as the median of each individual rat's FFS within the group and reported in Table 7. Fecal samples were dried using a lyophilizer for at least 3 days, following which dry weight was recorded and fecal fluid content was calculated based on the difference between the wet and dry stool weights. Fecal fluid content was calculated as a change from the vehicle group mean. For urine samples, the volumes were determined gravimetrically. Urine samples were analyzed on an ion chromatography system (Thermo Fisher ICS-3000 or ICS-5000+) coupled with conductivity detectors. Chromatographic separation of cations was performed using an IonPac CS12A (Thermo Fisher) 2×250 mm analytical column with an isocratic elution using 25 mM methanesulfonic acid. Concentrations were interpolated from a standard curve (prepared in 10 mM HCl) for sodium based on retention time and peak area. Thirteen-s-hour urinary sodium excretion (mg/13-hours) was calculated by multiplying urinary sodium concentration by 13-hour urine volume. The urinary sodium excretion of compound treatment was normalized to dietary sodium intake and expressed as a percentage of the vehicle mean.

gastrointestinal transit = assay: Restoration of gastrointestinal motility in opioid induced constipation (loperamide); type: in vivo, mice; conditions: oral gavage 15 mg/kg, loperamide s.c., Evans Blue small intestinal transit 30 minutes
Protocol: Approximately eight-week old, female, CD1 […] are purchased from Envigo (Livermore, Calif.), are housed 4 per cage and acclimated for at least 48 hours before study initiation. Animals are fed standard laboratory rodent chow Harlan Teklad Global 2018 (Madison, Wis.). Animals have ad libitum access to food and water for the duration of the acclimation period and are maintained in a temperature and humidity controlled room on a standard light/dark cycle of 6 AM to 6 PM. Following an overnight fast, with free access to water, animals are dosed by oral gavage with varying doses of test compound or vehicle (3 mM HCl, 0.01% Tween80), at a dose volume of 5 mL/kg. […] For an individual animal, the length travels by the Evans Blue dye front is divided by the length of the whole small intestine, measured from the pylorus to the cecum, and multiplied by 100, to provide the distance of the small intestine travelled by the dye as a percentage.

[2] = Rattus norvegicus, Sprague Dawley rats, read-out: Urinary Na (% of Vehicle, out/in)

SMILES | response vs control in vivo at 0.003 mg/kg ([1]; Rattus norvegicus, Sprague Dawley rats, oral gavage 0.003 mg/kg, read-out: Urinary Na (% of Vehicle, out/in)) | response vs control in vivo at 0.01 mg/kg ([1]; Rattus norvegicus, Sprague Dawley rats, oral gavage 0.01 mg/kg, read-out: Urinary Na (% of Vehicle, out/in)) | response vs control in vivo at 0.03 mg/kg [1, 2] | response vs control in vivo at 0.1 mg/kg [1, 2] | FFS (1-5) ([1]; 0.003 mg/kg) | FFS (1-5) ([1]; 0.01 mg/kg) | FFS (1-5) ([1]; 0.03 mg/kg) | FFS (1-5) ([1]; 0.1 mg/kg) | % Restoration of Transit (gastrointestinal transit) | response vs control in vivo at 0.3 mg/kg [1, 2] | FFS (1-5) ([1]; 0.3 mg/kg)
N#Cc1cc(Cl)cc2c1C[C@H](N1CCNCC1)[C@H]2Oc1ccc(S(=O)(=O)NC2CCN(C(=O)CCCNC(=O)NCCCCNC(=O)NCCCC(=O)N3CCC(NS(=O)(=O)c4ccc(O[C@H]5c6cc(Cl)cc(C#N)c6C[C@@H]5N5CCNCC5)cc4)CC3)CC2)cc1 [Example 115] | > 70% | > 70% | > 70% | < 40% | 1 | 2 | 2 | 2 | B (20-40%) | – | –
N#Cc1cc(Cl)cc2c1C[C@H](N1CCNCC1)[C@H]2Oc1ccc(S(=O)(=O)NC2CCN(CCOCCNC(=O)NCCCCNC(=O)NCCOCCN3CCC(NS(=O)(=O)c4ccc(O[C@H]5c6cc(Cl)cc(C#N)c6C[C@@H]5N5CCNCC5)cc4)CC3)CC2)cc1 [Example 123, 4-([(1S,2S)-6-Chloro-4-cyano-2-(piperazin-1-yl)-2,3-dihydro-1H-inden-1-yl]oxy)-N-[1-(20-[4-([4-([(1S,2S)-6-chloro-4-cyano-2-(piperazin-1-yl)-2,3-dihydro-1H-inden-1-yl]oxy)phenyl]sulfonamide]piperidin-1-yl)-7,14-dioxo-3,18-dioxa-6,8,13,15-tetraazaicosyl]piperidin-4-yl)benzenesulfonamide] | – | – | > 70% | 40 to 70% | – | – | 3 | 3 | A (<20%) | < 40% | 3
C[C@@H]1CN([C@H]2Cc3c(C#N)cc(Cl)cc3[C@@H]2Oc2ccc(S(=O)(=O)N[C@H]3CCN(CCOCCNC(=O)NCCCCNC(=O)NCCOCCN4CC[C@H](NS(=O)(=O)c5ccc(O[C@H]6c7cc(Cl)cc(C#N)c7C[C@@H]6N6CCN[C@H](C)C6)cc5)C4)C3)cc2)CCN1 [Example 132, 4-([(1S,2S)-6-Chloro-4-cyano-2-[(R)-3-methylpiperazin-1-yl]-2,3-dihydro-1H-inden-1-yl]oxy)-N—[(S)-1-(20-[(S)-3-([4-([(1S,2S)-6-chloro-4-cyano-2-[(R)-3-methylpiperazin-1-yl]-2,3-dihydro-1H-inden-1-yl]oxy)phenyl]sulfonamido)pyrrolidin-1-yl]-7,14-diaxo-3,18-dioxa-5,8,13,15-tetraazaicosyl)pyrrolidin-3-yl]benzenesulfonamide; bis(trifluoroacetic acid)] | – | – | > 70% | 40 to 70% | – | – | 3 | 3 | C (>40%) | < 40% | 3
